In patent US20240351997A1, “NOVEL PARP7 INHIBITOR AND USE THEREOF” (SHANGHAI QILU PHARMACEUTICAL RESEARCH AND DEVELOPMENT …, priority 2021, published 2024):

Each compound was assayed against PARP7 (Homo sapiens (Human), UniProt Q7Z3E1) (assay: In vitro enzymology experiment of PARP7 (enzymatic inhibition)).
Format: biochemical
Protocol: II. In Vitro Enzymology Experiment of PARP2, 3, 5A, 5B, 7, 12, and 15
1. Preparation of 384-well histone-coated plate: 25 μL of histone solution was added to each well, and the plate was incubated overnight at 4° C.
2. Preparation of PBST buffer, blocking buffer, and assay buffer
3. The 384-well histone-coated plate was washed three times with PBST buffer. The plate was blocked by 50 μL of blocking buffer for 1 hour at room temperature. The plate was then washed three times with PBST buffer.
2000× compound was prepared in a 96-well source plate. 50 nL of the compound was transferred from the source plate to a 96-well intermediate plate, and 39.95 μL of assay buffer was added to each well. The plate was shaken well and centrifuged at 1000 rpm for 1 minute.
5 μL of compound DMSO solution was transferred to each well.
An enzyme mixture was incubated at 25° C. for 10 minutes.
10 μL of the enzyme mixture was added, and incubated with the compound at room temperature for 10 minutes.
10 μL of assay buffer was added to the negative control well of the assay plate.
The plate was then washed three times with PBST buffer.
25 μL of Stre-HRP was added.
The plate was incubated at room temperature for 1 hour and washed three times with PBS buffer.
25 μL of QuantaRed Enhancer mix was added. The plate was incubated for 10 minutes.
2.5 μL of QuantaRed Stop Solution was added to terminate the peroxidase reaction, and the plate was shaken for 10 to 30 seconds.
7. Paradigm was used to read the plate immediately to detect the readings at Ex550/Em620.
Using equation (1) to fit the data in Excel to obtain inhibition values
Using equation (2) to fit the data in XL-Fit to obtain IC50 values
Y is the percentage of inhibition, and X is the compound concentration.

PARP7, sequence (Q7Z3E1 whole entry): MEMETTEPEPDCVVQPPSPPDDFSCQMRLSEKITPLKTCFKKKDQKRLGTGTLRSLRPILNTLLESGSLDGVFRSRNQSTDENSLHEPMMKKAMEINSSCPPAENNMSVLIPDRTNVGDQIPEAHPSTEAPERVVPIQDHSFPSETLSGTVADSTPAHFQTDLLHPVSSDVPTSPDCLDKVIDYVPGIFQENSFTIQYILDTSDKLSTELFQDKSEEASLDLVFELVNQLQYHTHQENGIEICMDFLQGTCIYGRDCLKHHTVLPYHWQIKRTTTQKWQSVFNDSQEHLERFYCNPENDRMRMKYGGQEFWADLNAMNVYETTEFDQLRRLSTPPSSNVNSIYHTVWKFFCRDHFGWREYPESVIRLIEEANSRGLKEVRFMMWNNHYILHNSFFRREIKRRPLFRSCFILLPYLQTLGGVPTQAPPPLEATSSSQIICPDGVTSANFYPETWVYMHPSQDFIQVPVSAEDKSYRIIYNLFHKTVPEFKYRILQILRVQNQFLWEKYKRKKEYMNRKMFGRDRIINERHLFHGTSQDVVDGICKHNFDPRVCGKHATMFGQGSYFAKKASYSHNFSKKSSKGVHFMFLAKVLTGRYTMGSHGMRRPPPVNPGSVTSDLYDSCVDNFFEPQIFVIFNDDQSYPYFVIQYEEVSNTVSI

Row | IC50 [nM] | SMILES
1 | 0.98 | C[C@@H]1CN(c2ncc(C(F)(F)F)cn2)C[C@H](C)N1C(=O)O[C@@H](C)Cc1c[nH]c(=O)c(C(F)(F)F)c1 [Example 156, (S)-1-(6-Oxo-5-(trifluoromethyl)-1,6-dihydropyridin-3-yl)propan-2-yl (2R,6S)-2,6-dimethyl-4-(5-(trifluoromethyl)pyrimidin-2-yl)piperazine-1-carboxylate]
2 | 2.26 | CC(Cc1c[nH]c(=O)c(C(F)(F)F)c1)OC(=O)N1CCN(c2ncc(C#N)cn2)CC1 (stereo not drawn) [Example 45, 1-(6-Oxo-5-(trifluoromethyl)-1,6-dihydropyridin-3-yl)propan-2-yl 4-(5-cyanopyrimidine-2-yl)piperazine-1-carboxylate]
3 | 0.65 | C[C@@H]1CN(C(=O)OCCc2c[nH]c(=O)c(C(F)(F)F)c2)C[C@H](C)N1c1ncc(C(F)(F)F)cn1 [Example 153, 2-(6-Oxo-5-(trifluoromethyl)-1,6-dihydropyridin-3-yl)ethyl (3R,5S)-3,5-dimethyl-4-(5-(trifluoromethyl)pyrimidin-2-yl)piperazine-1-carboxylate]
4 | 5.5 | C[C@H]1CN(c2ncc(C3CC3)cn2)C[C@H](C)N1C(=O)OCCc1c[nH]c(=O)c(C(F)(F)F)c1 [Example 182, 2-(6-Oxo-5-(trifluoromethyl)-1,6-dihydropyridin-3-yl)ethyl (2S,6S)-4-(5-cyclopropylpyrimidin-2-yl)-2,6-dimethylpiperazine-1-carboxylate]
5 | 0.87 | CC[C@@H]1CN(C(=O)OCCc2c[nH]c(=O)c(C(F)(F)F)c2)CCN1c1ncc(C(F)(F)F)cn1 [Example 123, 2-(6-Oxo-5-(trifluoromethyl)-1,6-dihydropyridin-3-yl)ethyl (R)-3-ethyl-4-(5-(trifluoromethyl)pyrimidin-2-yl)piperazine-1-carboxylate]
6 | 1.3 | C[C@@H]1CN(C(=O)O[C@@H](C)Cc2c[nH]c(=O)c(C(F)(F)F)c2)[C@@H](C)CN1c1ncc(C(F)(F)F)cn1 [Example 160, (S)-1-(6-Oxo-5-(trifluoromethyl)-1,6-dihydropyridin-3-yl)propan-2-yl (2S,5R)-2,5-dimethyl-4-(5-(trifluoromethyl)pyrimidin-2-yl)piperazine-1-carboxylate]
7 | 1.08 | C[C@@H](Cc1c[nH]c(=O)c(C(F)(F)F)c1)OC(=O)N1CCN(C(=O)C2CC2)CC1 [Example 90, (S)-1-(6-Oxo-5-(trifluoromethyl)-1,6-dihydropyridin-3-yl)propan-2-yl 4-(cyclopropanecarbonyl)piperazine-1-carboxylate]
8 | 7.02 | CC(C(=O)N1CCN(c2ncc(C(F)(F)F)cn2)CC1)c1c[nH]c(=O)c(C(F)(F)F)c1 (stereo not drawn) [Example 60, 5-(1-Oxo-1-(4-(5-(trifluoromethyl)pyrimidin-2-yl)piperazin-1-yl)propan-2-yl)-3-(trifluoromethyl)pyridin-2(1H)-one]
9 | 0.39 | COC[C@@H]1CN(c2ncc(C(F)(F)F)cn2)CCN1C(=O)OCCc1c[nH]c(=O)c(C(F)(F)F)c1 (stereo in doubt) [Example 129, 2-(6-Oxo-5-(trifluoromethyl)-1,6-dihydropyridin-3-yl)ethyl 2-(methoxymethyl)-4-(5-(trifluoromethyl)pyrimidin-2-yl)piperazine-1-carboxylate]
10 | 0.76 | O=C(OCCc1c[nH]c(=O)c(C(F)(F)F)c1)N1CCN(c2ncc(C3CC3)cn2)CC1 [Example 152, 2-(6-Oxo-5-(trifluoromethyl)-1,6-dihydropyridin-3-yl)ethyl 4-(5-cyclopropylpyrimidin-2-yl)piperazine-1-carboxylate]
11 | 0.95 | CC(Cc1c[nH]c(=O)c2ccccc12)OC(=O)N1CCN(c2ncc(C(F)(F)F)cn2)CC1 (stereo not drawn) [Example 102, 1-(1-Oxo-1,2-dihydroisoquinolin-4-yl)propan-2-yl 4-(5-(trifluoromethyl)pyrimidin-2-yl)piperazine-1-carboxylate]
12 | 0.49 | O=C(OCCc1c[nH]c(=O)c(C(F)(F)F)c1)N1CCN(c2cnc(C(F)(F)F)cn2)CC1 [Example 127, 2-(6-Oxo-5-(trifluoromethyl)-1,6-dihydropyridin-3-yl)ethyl 4-(5-(trifluoromethyl)pyrazin-2-yl)piperazine-1-carboxylate]

Further lines, the compound ahead of its results:

Row | SMILES | IC50 [nM]
13 | C[C@@H](Cc1c[nH]c(=O)c(C(F)(F)F)c1)OC(=O)N1CCN(c2ncc(C(F)(F)F)cn2)C[C@@H]1C [Example 92, (S)-1-(6-Oxo-5-(trifluoromethyl)-1,6-dihydropyridin-3-yl)propan-2-yl (S)-2-methyl-4-(5-(trifluoromethyl)pyrimidin-2-yl)piperazine-1-carboxylate] | 0.19
14 | O=C(O[C@@H]1CCC[C@H]1c1c[nH]c(=O)c(C(F)(F)F)c1)N1CCN(c2ncc(C(F)(F)F)cn2)CC1 (single isomer, unassigned) [Example 70] | 0.91
15 | O=C(CCOCCn1c(=O)ccc2c(=O)[nH]ncc21)N1CCN(c2ncc(C(F)(F)F)cn2)CC1 [Example 22, 1-(2-(3-Oxo-3-(4-(5-(trifluoromethyl)pyrimidin-2-yl)piperazin-1-yl)propoxy)ethyl)pyrido[2,3-d]pyridazine-2,5(1H,6H)-dione] | 3.6
16 | CC[C@@H]1CN(c2ncc(C(F)(F)F)cn2)CCN1C(=O)OCCc1c[nH]c(=O)c(C(F)(F)F)c1 [Example 122, 2-(6-Oxo-5-(trifluoromethyl)-1,6-dihydropyridin-3-yl)ethyl (R)-2-ethyl-4-(5-(trifluoromethyl)pyrimidin-2-yl)piperazine-1-carboxylate] | 0.69
17 | C[C@@H]1CN(c2ncc(C(F)(F)F)cn2)C[C@@H](C)N1C(=O)O[C@@H](C)Cc1c[nH]c(=O)c(C(F)(F)F)c1 [Example 158, (S)-1-(6-Oxo-5-(trifluoromethyl)-1,6-dihydropyridin-3-yl)propan-2-yl (2R,6R)-2,6-dimethyl-4-(5-(trifluoromethyl)pyrimidin-2-yl)piperazine-1-carboxylate] | 5
18 | CN(CCc1c[nH]c(=O)c(C(F)(F)F)c1)C(=O)N1CCN(c2ncc(C(F)(F)F)cn2)CC1 [Example 115, N-Methyl-N-(2-(6-oxo-5-(trifluoromethyl)-1,6-dihydropyridin-3-yl)ethyl)-4-(5-(trifluoromethyl)pyrimidin-2-yl)piperazine-1-carboxamide] | 1
19 | O=C(O[C@H]1CCC[C@H]1c1c[nH]c(=O)c(C(F)(F)F)c1)N1CCN(c2ncc(C(F)(F)F)cn2)CC1 [Example 82, (1S,2S)-2-(6-Oxo-5-(trifluoromethyl)-1,6-dihydropyridin-3-yl)cyclopentyl 4-(5-(trifluoromethyl)pyrimidin-2-yl)piperazine-1-carboxylate] | 1.44
20 | C[C@@H]1CN(C(=O)OCCc2c[nH]c(=O)c(C(F)(F)F)c2)CCN1c1ncc(C(F)(F)F)cn1 [Example 112, 2-(6-Oxo-5-(trifluoromethyl)-1,6-dihydropyridin-3-yl)ethyl (R)-3-methyl-4-(5-(trifluoromethyl)pyrimidin-2-yl)piperazine-1-carboxylate] | 0.62
21 | C[C@@H](Cc1c[nH]c(=O)c(C(F)(F)F)c1)OC(=O)N1[C@@H](C)CN(c2ncc(C3CC3)cn2)C[C@@H]1C [Example 177, (S)-1-(6-Oxo-5-(trifluoromethyl)-1,6-dihydropyridin-3-yl)propan-2-yl (2S,6S)-4-(5-cyclopropylpyrimidin-2-yl)-2,6-dimethylpiperazine-1-carboxylate] | 0.78
